A word on the solubility (mole fraction): it is solubility expressed as the solute's share of all molecules.

The molecule `CCc1cc(C(N)=S)ccn1` came in with a solubility (mole fraction) (in n-hexane, 293.15 K) of 1.84e-05; a solubility (mole fraction) (in n-hexane, 298.15 K) of 2.22e-05; a solubility (mole fraction) (in n-hexane, 303.15 K) of 2.73e-05; a solubility (mole fraction) (in n-hexane, 308.15 K) of 3.2e-05; a solubility (mole fraction) (in n-hexane, 313.15 K) of 3.88e-05; a solubility (mole fraction) (in n-octanol, 293.15 K) of 0.00674. Moreover, the solubility (mole fraction) runs as follows: (in n-octanol, 298.15 K) 0.00868; (in n-octanol, 303.15 K) 0.0108; (in n-octanol, 308.15 K) 0.0133; (in n-octanol, 313.15 K) 0.016.
Regarding `NC(=S)c1ccccn1`, the solubility (mole fraction) is, setting by setting: (in n-hexane, 293.15 K) 0.000199; (in n-hexane, 298.15 K) 0.000248; (in n-hexane, 303.15 K) 0.000325; (in n-hexane, 308.15 K) 0.000404; (in n-hexane, 313.15 K) 0.000518; (in n-octanol, 293.15 K) 0.00952. Besides, the solubility (mole fraction) runs as follows: (in n-octanol, 298.15 K) 0.012; (in n-octanol, 303.15 K) 0.0147; (in n-octanol, 308.15 K) 0.0183; (in n-octanol, 313.15 K) 0.0222.
With `NC(=S)c1ccncc1`, the solubility (mole fraction) is 2.97e-06 (in n-hexane, 293.15 K); 3.73e-06 (in n-hexane, 298.15 K); 4.47e-06 (in n-hexane, 303.15 K); 5.47e-06 (in n-hexane, 308.15 K); 6.67e-06 (in n-hexane, 313.15 K); 0.00347 (in n-octanol, 293.15 K). In addition, the solubility (mole fraction) amounted to 0.00431 (in n-octanol, 298.15 K); 0.00516 (in n-octanol, 303.15 K); 0.0062 (in n-octanol, 308.15 K); 0.00744 (in n-octanol, 313.15 K).

The values are drawn from BigSolDB 2.1.
